Results on seven compounds are retold here after PubChem BioAssay (NCI).

Holding throughout (test): NCI tumour cell line growth inhibition, 48 h
In assay [1] the test system is A498 renal.
Assay [2] concerns A549 NSCLC.
Assay [3] has as its system CAKI-1 renal.
Assay [4] relates to DU-145 prostate.
In assay [5] the test system is HCT-15 colon.
Assay [6] deals with HOP-92 NSCLC.
Assay [7] concerns HT29 colon.
In assay [8] the test system is K-562 leukemia.
In assay [9] the test system is KM12 colon.
The test system of assay [10] is MALME-3M melanoma.
Assay [11] relates to MOLT-4 leukemia.
Assay [12] concerns NCI/ADR-RES ovarian.
Assay [13] relates to OVCAR-5 ovarian.
Assay [14] deals with OVCAR-8 ovarian.
Assay [15] has as its system RXF 393 renal.
For assay [16], the system named is SF-295 CNS.
In assay [17] the test system is T-47D breast.
Assay [18] has as its system UACC-62 melanoma.
Assay [19] concerns UO-31 renal.

The structures appear in SMILES notation.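 48-hour exposure; five concentrations; linearly interpolated endpoints. TGI marks complete inhibition of growth.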

On to `CN1CCN(c2n[nH]c(=O)c3c2nnn3C2CCCCC2)CC1`, for which the TGI in [1], in assay [2], in assay [3], in [4], in [5] and in assay [6] was more than 100 µM in each case. Further, the TGI in assay [7], in assay [8], in assay [9], in assay [10], in assay [11] and in assay [12] was more than 100 µM throughout. Also, the TGI in assay [13], in assay [14], in [15], in assay [16], in [17] and in assay [18] was more than 100 µM in each case. Also, in [19], the TGI is more than 100 µM.
Take `CC(C)C(/C=C/c1ccc(Cl)cc1)=N\NC(=O)N/N=C(/C=C/c1ccc(Cl)cc1)C(C)C`: the TGI in assay [1] was 33.9 µM; in assay [2] it was 41.5 µM; in [3], 35.6 µM; in assay [4] it was more than 100 µM; in [5], more than 100 µM; in assay [6] it was 56.9 µM. For the same compound, the TGI is more than 100 µM in [7]; more than 100 µM in assay [8]; more than 100 µM in [9]; more than 100 µM in assay [10]; more than 100 µM in assay [11]; 78.9 µM in assay [12]. The TGI in [13] was more than 100 µM; in [14], 38 µM; in assay [15] it was 76.9 µM; in assay [16], 45.2 µM; in [17], more than 100 µM; in [18], more than 100 µM. This compound showed a TGI in assay [19] of more than 100 µM.
Take `C=C(C)CCC(O)[C@](C)(O)[C@H]1[C@H](O)C[C@@]2(C)[C@@H]3CCc4c(cc(OC5OC(CO)C(O)C(O)C5O)c(O)c4C)C3(C)C(=O)C[C@]12C` (stereo partly drawn): the TGI in assay [1], in assay [2], in assay [3], in assay [4], in [5] and in [6] was more than 100 µM throughout. The TGI in [7], in assay [8], in assay [9], in assay [10], in [11] and in assay [12] was more than 100 µM each time. Besides, the TGI in [13], in assay [14], in [15], in assay [16], in assay [17] and in [18] was more than 100 µM in each case. Further, the TGI in [19] was more than 100 µM.
On to `CN(Cc1cnc2nc(N)nc(N)c2n1)c1ccc(C(=O)NCCCC(=O)O)cc1`, for which the TGI in assay [1], in assay [2], in assay [3], in [4], in assay [5] and in assay [6] was more than 100 µM throughout. The TGI in [7], in assay [8], in assay [9], in assay [10], in [11] and in assay [12] was more than 100 µM throughout. In addition, the TGI in assay [13], in [14], in assay [15], in assay [16], in assay [17] and in assay [18] was more than 100 µM each time. The compound further returned a TGI in [19] of more than 100 µM.
Consider `O=C(NC(OCc1ccccc1)(C(F)(F)F)C(F)(F)F)OCc1ccccc1`, for which the TGI turned out to be 31.6 µM in assay [1]; 28.5 µM in assay [2]; 27.5 µM in assay [3]; 30.3 µM in assay [4]; 26.7 µM in assay [5]; 27.8 µM in assay [6]. In addition, the TGI came to 32.2 µM in assay [7]; 36.8 µM in assay [8]; 30.2 µM in assay [9]; 31.9 µM in assay [10]; 38.6 µM in assay [11]; 26.3 µM in assay [12]. The TGI in assay [13] was determined as 27.4 µM; in assay [14], 30.1 µM; in [15], 25.3 µM; in assay [16] it was 31.4 µM; in [17] it was 29.4 µM; in assay [18], 27 µM. The compound further returned a TGI in assay [19] of 23.3 µM.
As for `c1ccc2c(c1)-c1ccccc1C2NC1=NCCO1`, the TGI in assay [1] was 34 µM; in assay [2] it was more than 100 µM; in assay [3], 80.9 µM; in [4], more than 100 µM; in assay [5] it was 21.3 µM; in assay [6], 36.3 µM. Also, the TGI in assay [7] was 60.6 µM; in assay [8], more than 100 µM; in assay [9] it was 33.2 µM; in assay [10], 27 µM; in [11], more than 100 µM; in assay [12] it was more than 100 µM. The TGI is more than 100 µM in [13]; 57.2 µM in assay [14]; more than 100 µM in assay [15]; more than 100 µM in assay [16]; more than 100 µM in [17]; 38.9 µM in assay [18]. The TGI in [19] is 50.7 µM.
For the compound `O=CC1OC(=O)c2cc(O)c(O)c(O)c2-c2c(cc(O)c(O)c2O)C(=O)OC1C1OC(=O)c2cc(O)c(O)c(O)c2-c2c(O)c(O)c3oc(=O)c4c(c(O)c(O)c5oc(=O)c2c3c54)-c2c(cc(O)c(O)c2O)C(=O)OCC1O` (stereo not drawn), the TGI in assay [1] was more than 100 µM; in assay [2], more than 100 µM; in assay [3], 25.9 µM; in assay [4] it was more than 100 µM; in assay [5] it was more than 100 µM; in assay [6] it was more than 100 µM. For the same compound, the TGI in [7] is 29.6 µM; in [8], 71.8 µM; in assay [9], more than 100 µM; in assay [10], more than 100 µM; in [11], 90.1 µM; in assay [12], more than 100 µM. For the same compound, the TGI in assay [13] was more than 100 µM; in assay [14] it was 41.2 µM; in assay [15] it was more than 100 µM; in [16] it was 89.4 µM; in assay [17], more than 100 µM; in [18], more than 100 µM. In assay [19], this compound registered a TGI of more than 100 µM.
